Values joined by “and” are separate entries in the source; they are usually repeats but may differ in a detail not shown here. Equal values may be shown once.
Columns and labels:
[1] = tested on: Mtb; assay: Mtb growth assay in cholesterol medium (OD600); conditions: for OD600: Fig. 2G
Description: Bacterial growth was tracked by measuring OD600 every 3 days for 12 days. […] Bacterial growth was tracked by measurement of OD600 every 3 days over 12 days.

[2] = molecular target: T1, CYP1A2 (Homo sapiens, UniProt P05177); assay: Human cytochrome P450 inhibition, 1A2; format: in vitro ADME; conditions: read-out: % inhibition of CYP 1A2
T1 sequence (P05177 1-516): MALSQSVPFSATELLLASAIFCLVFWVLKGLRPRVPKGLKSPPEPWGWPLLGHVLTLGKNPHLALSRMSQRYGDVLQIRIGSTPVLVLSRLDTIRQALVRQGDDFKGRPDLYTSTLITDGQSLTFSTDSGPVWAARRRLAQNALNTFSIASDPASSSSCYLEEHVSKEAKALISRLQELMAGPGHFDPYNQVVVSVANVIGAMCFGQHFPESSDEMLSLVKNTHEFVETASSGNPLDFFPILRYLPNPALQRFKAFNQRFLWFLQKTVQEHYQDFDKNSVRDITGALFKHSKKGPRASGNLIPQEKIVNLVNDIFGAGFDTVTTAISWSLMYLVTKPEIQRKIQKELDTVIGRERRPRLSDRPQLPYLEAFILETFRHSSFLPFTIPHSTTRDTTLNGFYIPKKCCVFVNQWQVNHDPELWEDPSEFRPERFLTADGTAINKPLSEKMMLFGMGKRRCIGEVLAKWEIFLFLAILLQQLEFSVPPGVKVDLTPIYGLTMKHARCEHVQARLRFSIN
Protocol: (§1) Assays examining mouse and human liver microsomal stability, kinetic aqueous solubility, mouse and human plasma protein binding and stability, and human cytochrome P450 inhibition characteristics of the compounds were run by BioDuro (San Diego, CA), using standard protocols as previously described [37]. hERG inhibition assays were also performed by BioDuro.

[3] = Mouse liver microsomal stability; format: in vitro ADME; conditions: mouse liver microsomes; read-out: half-life (t1/2) in mouse liver microsomes
Protocol: as §1

[4] = tested on: J774 cells; assay: Intracellular drug accumulation assay in J774 cells (LC-MS); conditions: 24 hours

With `CCSc1ncc(CN2CCN(c3nc4ccccc4o3)CC2)cn1` [C6, 2-(4-((2-(ethylthio)pyrimidin-5-yl)methyl)piperazin-1-yl)benzo[d]oxazole] the “Inhibition of Mtb growth in cholesterol media” value ([1]; 10 μM, OD600 over 12 days) was “inhibited Mtb growth”, the OD600 ([1]; day 3, average) was 0.06 and the OD600 ([1]; day 3, individual replicates) was 0.06. For the same compound, the OD600 ([1]; day 6, average) was 0.09333, the OD600 ([1]; day 6, individual replicates) was 0.1 (2×) and 0.08 and the OD600 ([1]; day 9, average) was 0.12. The OD600 ([1]; day 9, individual replicates) was 0.12 and 0.1 and 0.14, the OD600 ([1]; day 12, average) was 0.1533 and the OD600 ([1]; day 12, individual replicates) was 0.14 (2×) and 0.18. For the same compound, the inhibition at 10 µM [2] was under 1%, the half-life [3] was 48.5 min and the “Intracellular accumulation in J774 cells” value [4] was “dose-dependent accumulation”.
